Measurements published in ChEMBL document CHEMBL3091417, “Substituted phenyl as a steroid A-ring mimetic: providing agonist activity to a class of arylsulfonamide nonsteroidal glucocorticoid ligands” (Bioorg Med Chem Lett, 2013).
pIC50: −log10 of the molar value. Activity calls are given as the source filed them. The rule behind the calls is not given here.

Columns and labels:
Glucocorticoid receptor [1] = target: T1, Glucocorticoid receptor (Homo sapiens, UniProt P04150); experiment: Inhibition of glucocorticoid receptor (unknown origin) expressed in baculovirus-infected insect cells by fluorescence polarization assay
T1 sequence (P04150 whole entry): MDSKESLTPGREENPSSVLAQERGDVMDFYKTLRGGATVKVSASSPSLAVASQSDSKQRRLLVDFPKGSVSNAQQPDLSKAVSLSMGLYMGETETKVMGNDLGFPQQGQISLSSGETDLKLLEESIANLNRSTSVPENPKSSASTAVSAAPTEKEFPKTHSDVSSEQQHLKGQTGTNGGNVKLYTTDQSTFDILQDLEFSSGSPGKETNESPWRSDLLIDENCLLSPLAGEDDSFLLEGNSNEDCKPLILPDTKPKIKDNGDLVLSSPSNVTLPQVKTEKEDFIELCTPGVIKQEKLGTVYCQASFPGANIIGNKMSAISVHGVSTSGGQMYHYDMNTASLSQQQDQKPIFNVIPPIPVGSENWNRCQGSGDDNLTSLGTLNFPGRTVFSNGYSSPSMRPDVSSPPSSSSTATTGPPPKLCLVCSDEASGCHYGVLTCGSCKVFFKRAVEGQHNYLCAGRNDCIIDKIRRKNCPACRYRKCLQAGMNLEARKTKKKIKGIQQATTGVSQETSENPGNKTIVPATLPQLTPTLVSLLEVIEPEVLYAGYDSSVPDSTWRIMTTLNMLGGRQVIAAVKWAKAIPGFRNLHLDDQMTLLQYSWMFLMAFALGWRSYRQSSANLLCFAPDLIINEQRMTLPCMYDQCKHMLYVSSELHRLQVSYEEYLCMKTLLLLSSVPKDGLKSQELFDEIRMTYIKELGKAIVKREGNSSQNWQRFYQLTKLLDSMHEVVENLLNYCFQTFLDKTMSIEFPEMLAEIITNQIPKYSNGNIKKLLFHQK

[2] = target: T2, Glucocorticoid receptor (Homo sapiens) (UniProt P04150); experiment: Agonist activity at glucocorticoid receptor in human foreskin fibroblasts assessed as IL-1-mediated IL-6 synthesis at […] after 24 hrs relative to dexamethasone
T2 sequence (whole entry): T1 sequence (P04150 whole entry)

[3] = target: T3, Mineralocorticoid receptor (Homo sapiens, UniProt P08235); experiment: Inhibition of mineralocorticoid receptor (unknown origin) expressed in baculovirus-infected insect cells by fluorescence polarization assay
T3 sequence (P08235 whole entry): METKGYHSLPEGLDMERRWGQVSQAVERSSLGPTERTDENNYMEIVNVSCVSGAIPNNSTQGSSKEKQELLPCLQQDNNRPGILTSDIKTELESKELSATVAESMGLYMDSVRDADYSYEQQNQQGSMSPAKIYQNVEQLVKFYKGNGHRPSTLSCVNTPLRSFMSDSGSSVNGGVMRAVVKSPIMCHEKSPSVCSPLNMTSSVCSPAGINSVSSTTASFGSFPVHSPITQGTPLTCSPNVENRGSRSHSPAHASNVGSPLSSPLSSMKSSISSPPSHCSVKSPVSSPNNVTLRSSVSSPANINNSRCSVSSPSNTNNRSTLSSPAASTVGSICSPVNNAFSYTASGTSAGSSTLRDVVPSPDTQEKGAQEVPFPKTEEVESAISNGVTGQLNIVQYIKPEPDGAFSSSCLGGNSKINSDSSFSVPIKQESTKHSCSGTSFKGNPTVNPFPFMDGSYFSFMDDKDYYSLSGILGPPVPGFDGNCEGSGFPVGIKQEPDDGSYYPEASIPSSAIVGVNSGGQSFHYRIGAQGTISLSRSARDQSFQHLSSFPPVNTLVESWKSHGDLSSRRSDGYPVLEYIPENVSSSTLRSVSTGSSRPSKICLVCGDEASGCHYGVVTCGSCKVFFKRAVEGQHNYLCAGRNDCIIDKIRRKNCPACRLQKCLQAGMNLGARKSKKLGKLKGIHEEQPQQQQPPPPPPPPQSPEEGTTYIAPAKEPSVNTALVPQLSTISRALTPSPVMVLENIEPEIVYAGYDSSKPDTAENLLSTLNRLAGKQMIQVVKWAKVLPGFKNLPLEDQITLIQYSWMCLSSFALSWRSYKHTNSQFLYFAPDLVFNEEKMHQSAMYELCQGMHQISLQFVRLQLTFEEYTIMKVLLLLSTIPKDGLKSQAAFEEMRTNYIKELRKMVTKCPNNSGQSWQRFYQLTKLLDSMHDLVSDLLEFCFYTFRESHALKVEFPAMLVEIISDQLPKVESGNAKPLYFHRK

Progesterone receptor = target: T4, Progesterone receptor (Homo sapiens, UniProt P06401); experiment: Inhibition of progesterone receptor (unknown origin) expressed in baculovirus-infected insect cells by fluorescence polarization assay
T4 sequence (P06401 whole entry): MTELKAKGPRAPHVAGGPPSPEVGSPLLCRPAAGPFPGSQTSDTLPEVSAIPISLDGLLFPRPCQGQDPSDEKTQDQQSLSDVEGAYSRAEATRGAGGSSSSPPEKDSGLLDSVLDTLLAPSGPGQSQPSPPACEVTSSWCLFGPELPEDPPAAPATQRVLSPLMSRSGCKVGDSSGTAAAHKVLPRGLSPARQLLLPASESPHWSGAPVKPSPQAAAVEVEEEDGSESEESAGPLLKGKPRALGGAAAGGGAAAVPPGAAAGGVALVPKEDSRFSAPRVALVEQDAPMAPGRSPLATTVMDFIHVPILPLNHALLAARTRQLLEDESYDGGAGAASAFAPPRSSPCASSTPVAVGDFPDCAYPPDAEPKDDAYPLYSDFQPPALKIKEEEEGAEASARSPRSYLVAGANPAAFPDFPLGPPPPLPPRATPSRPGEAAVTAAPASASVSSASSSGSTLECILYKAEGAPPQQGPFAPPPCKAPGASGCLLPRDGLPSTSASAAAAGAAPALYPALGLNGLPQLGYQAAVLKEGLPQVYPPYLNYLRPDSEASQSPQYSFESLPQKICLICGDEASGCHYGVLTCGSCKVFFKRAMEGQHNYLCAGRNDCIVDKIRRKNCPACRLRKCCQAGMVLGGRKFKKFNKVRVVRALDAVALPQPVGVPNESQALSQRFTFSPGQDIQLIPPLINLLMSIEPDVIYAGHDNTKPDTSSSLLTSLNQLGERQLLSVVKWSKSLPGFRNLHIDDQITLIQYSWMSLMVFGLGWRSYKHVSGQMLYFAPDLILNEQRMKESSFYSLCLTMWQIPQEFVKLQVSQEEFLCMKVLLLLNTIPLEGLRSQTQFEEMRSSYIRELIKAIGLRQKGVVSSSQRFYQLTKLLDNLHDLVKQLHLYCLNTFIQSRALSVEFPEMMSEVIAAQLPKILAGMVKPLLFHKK

Glucocorticoid receptor [4] = target: T1, Glucocorticoid receptor; experiment: Agonist activity at glucocorticoid receptor in human foreskin fibroblasts assessed as IL-1-mediated IL-6 synthesis after 24 hrs
[5] = target: T2, Glucocorticoid receptor (Homo sapiens); experiment: Inhibition of glucocorticoid receptor (unknown origin) expressed in baculovirus-infected insect cells up to 10 uM by fluorescence polarization assay

SMILES	pIC50 (Glucocorticoid receptor [1])	Emax [2] [%]	pIC50 [3]	pIC50 (Progesterone receptor)	pIC50 (Glucocorticoid receptor [4])	inhibition [5]
CC[C@@H](Cc1ccc(O)c(C)c1C)NS(=O)(=O)c1c(C)cc(C)cc1C	8.70	77	6.57	6.21	7.66	
CCC(Cc1cc(C)ccc1C)NS(=O)(=O)c1c(C)cc(C)cc1C (stereo unspecified)	7.60	0	6.49	< 5.00	< 5.00	
CCC(Cc1ccc(C)cc1)NS(=O)(=O)c1c(C)cc(C)cc1C (stereo unspecified)	6.64	0	5.96	5.47	< 5.00	
CC[C@@H](Cc1ccc(O)c(C)c1)NS(=O)(=O)c1c(C)cc(C)cc1C	7.64	0	5.64	5.60	< 5.70	
CCC(Cc1ccc(O)c(C)c1C)NS(=O)(=O)c1c(C)cc(C)cc1C (racemic)	8.30	81	6.62	6.07	7.82	
CCC(Cc1ccc2ccccc2c1)NS(=O)(=O)c1c(C)cc(C)cc1C (stereo unspecified)	7.11	0	6.40	6.14	< 5.00	
Cc1cc(C)c(S(=O)(=O)NC(C)Cc2ccccc2)c(C)c1 (stereo unspecified)						inactive
CCC(Cc1c(C)cccc1C)NS(=O)(=O)c1c(C)cc(C)cc1C (stereo unspecified)	6.96	0	< 5.00	< 5.00	< 5.00	
CC[C@@H](Cc1ccc(O)cc1)NS(=O)(=O)c1c(C)cc(C)cc1C	6.92	0	5.28	5.19	< 5.70	
CCC(Cc1ccc(C)cc1C)NS(=O)(=O)c1c(C)cc(C)cc1C (stereo unspecified)	6.80	0	5.62	5.09	< 5.00	
CC[C@@H](Cc1ccc(O)cc1C)NS(=O)(=O)c1c(C)cc(C)cc1C	7.57	0	6.00	5.55	< 5.70	
CCC(Cc1cc(F)cc(F)c1)NS(=O)(=O)c1c(C)cc(C)cc1C (stereo unspecified)	7.32	0	6.40	5.47	< 5.00	
CCC(Cc1cc(C)cc(C)c1)NS(=O)(=O)c1c(C)cc(C)cc1C (stereo unspecified)	7.96	36	6.44	5.13	< 5.00	
CCC(Cc1cc(C)c(O)c(C)c1)NS(=O)(=O)c1c(C)cc(C)cc1C (stereo unspecified)	7.92	58	6.32	5.46	7.05	
CCC(Cc1cccc2ccccc12)NS(=O)(=O)c1c(C)cc(C)cc1C (stereo unspecified)	8.00	0	6.72	5.82	< 5.00	
CCC(Cc1cccc(C)c1)NS(=O)(=O)c1c(C)cc(C)cc1C (stereo unspecified)	7.64	0	6.40	5.26	< 5.00	
CCC(Cc1ccccc1C)NS(=O)(=O)c1c(C)cc(C)cc1C (stereo unspecified)	7.08	0	6.15	5.38	< 5.00	
CCC(Cc1cc(C)c(OC)c(C)c1)NS(=O)(=O)c1c(C)cc(C)cc1C (stereo unspecified)	6.60	0	5.85	< 5.00	< 5.70	
CCC(Cc1cccc(C)c1C)NS(=O)(=O)c1c(C)cc(C)cc1C (stereo unspecified)	8.00	19	6.46	5.70	< 5.00	
CCC(Cc1cc(Cl)cc(Cl)c1)NS(=O)(=O)c1c(C)cc(C)cc1C (stereo unspecified)	8.00	0	6.82	5.92	< 5.00	
CCC(Cc1ccc(OC)c(C)c1C)NS(=O)(=O)c1c(C)cc(C)cc1C (stereo unspecified)	7.21	0	6.48	5.68	< 5.70	
CCC(Cc1ccc(O)c2ccccc12)NS(=O)(=O)c1c(C)cc(C)cc1C (stereo unspecified)	8.52	80	6.96	6.68	7.64	
